Where two headings read alike, the source gives them in different places.
Key:
[1] = molecular target: T1, IRAK4 (Homo sapiens, UniProt Q9NWZ3); assay: RBC HotSpot Kinase Assay, IRAK4; assay type: biochemical; design: purchased Reaction Biology (RBC HotSpot); conditions: isolated kinase enzyme, 33P-ATP, P81 filter-binding
T1 sequence (Q9NWZ3 1-460): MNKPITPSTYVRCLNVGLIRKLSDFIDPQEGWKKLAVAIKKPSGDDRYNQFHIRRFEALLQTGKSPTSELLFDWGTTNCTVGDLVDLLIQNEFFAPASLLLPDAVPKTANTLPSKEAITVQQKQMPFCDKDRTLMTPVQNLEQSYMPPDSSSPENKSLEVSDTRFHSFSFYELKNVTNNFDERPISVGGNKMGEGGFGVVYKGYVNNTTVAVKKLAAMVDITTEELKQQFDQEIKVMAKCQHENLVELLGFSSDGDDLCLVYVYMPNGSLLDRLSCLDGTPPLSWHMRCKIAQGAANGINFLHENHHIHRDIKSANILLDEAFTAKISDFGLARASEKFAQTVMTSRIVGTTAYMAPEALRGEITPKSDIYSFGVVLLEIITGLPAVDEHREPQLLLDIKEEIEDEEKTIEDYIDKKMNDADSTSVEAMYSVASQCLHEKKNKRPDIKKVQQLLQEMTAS
Procedure, shortened: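 Radiometric filter-binding activity assay with isolated recombinant kinase (construct may be truncated or catalytic domain only) in 20 mM Hepes pH 7.5, 10 mM MgCl2, 1 mM EGTA, 2 mM DTT, 1% DMSO. Compound preincubated 20 min with kinase/substrate; reaction started with 33P-ATP, run 2 h at room temperature.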

[2] = test system: NF-κB-inducible SEAP reporter in THP-1-Blue NF-κB cells; assay: NF-kB SEAP reporter assay in THP-1-Blue NF-κB cells; assay type: cell-based; conditions: 24 hours
Experimental: THP-1-Blue NF-κB cells (InvivoGen) carrying a stable integrated NF-κB-inducible secreted embryonic alkaline phosphatase (SEAP) reporter construct were plated at a concentration of 1×10^5 cells per well. The cells were stimulated with Pam3CSK4 (1 ng/mL) or hIL1B (1 ng/mL). After 10-20 minutes, the cells were then treated with vehicle (DMSO) or serial dilutions of the test compounds (10 doses tested for each test compound, with a 1:10 dilution series starting at 1 μM or 3 μM) with a final volume of 200 μL for 24 hours at 37° C. After 24 hours, the cells were centrifuged and 20 μL supernatant was incubated with 180 μL QUANTI-Blue reagent at 37° C. for 30-60 minutes. The levels of NF-κB-induced was measured in a microplate reader at 620 nm.

[3] = molecular target: T2, IRAK1 (Homo sapiens, UniProt P51617); assay: RBC HotSpot Kinase Assay, IRAK1; assay type: biochemical; conditions: isolated kinase enzyme, 33P-ATP, P81 filter-binding
T2 construct: purchased Reaction Biology (RBC HotSpot)
T2 sequence (P51617 whole entry): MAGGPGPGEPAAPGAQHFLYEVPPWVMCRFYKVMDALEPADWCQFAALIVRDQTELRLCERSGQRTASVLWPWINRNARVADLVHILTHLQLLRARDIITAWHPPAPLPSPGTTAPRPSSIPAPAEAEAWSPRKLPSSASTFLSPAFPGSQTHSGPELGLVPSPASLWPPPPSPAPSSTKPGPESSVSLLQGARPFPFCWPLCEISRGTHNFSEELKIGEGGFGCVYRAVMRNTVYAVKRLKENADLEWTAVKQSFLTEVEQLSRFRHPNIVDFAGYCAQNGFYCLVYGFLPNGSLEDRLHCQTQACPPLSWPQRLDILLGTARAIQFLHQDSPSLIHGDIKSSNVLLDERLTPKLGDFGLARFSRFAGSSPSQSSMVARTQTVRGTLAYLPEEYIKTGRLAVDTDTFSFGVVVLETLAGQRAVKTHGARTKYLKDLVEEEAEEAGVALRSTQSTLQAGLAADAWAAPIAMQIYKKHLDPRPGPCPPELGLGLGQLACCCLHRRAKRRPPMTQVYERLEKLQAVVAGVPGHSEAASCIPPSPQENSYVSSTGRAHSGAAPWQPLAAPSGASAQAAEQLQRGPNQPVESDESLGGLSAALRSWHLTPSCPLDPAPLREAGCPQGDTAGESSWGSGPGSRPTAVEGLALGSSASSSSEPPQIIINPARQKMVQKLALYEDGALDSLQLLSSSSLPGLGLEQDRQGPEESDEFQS
Procedure, shortened: (§1)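 Radiometric HotSpot assay of catalytic activity with isolated recombinant kinase, possibly truncated or kinase domain only. Buffer: 20 mM Hepes pH 7.5, 10 mM MgCl2, 1 mM EGTA, 0.01% Brij35, 0.02 mg/ml BSA, 0.1 mM Na3VO4, 2 mM DTT, 1% DMSO, with cofactors specific to each kinase.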

[4] = test system: MOLM14 D835Y cells; assay: MOLM14 D835Y cell viability assay (Cell Titer Glo); assay type: cell-based; conditions: Homo sapiens, MOLM-14, 48 h, cell viability, Cell Titer Glo, 48 hours; read-out: MOLM14 D835Y IC50
Procedure, shortened: (§2)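 MOLM14 cells with FLT3 D835Y or F691L kinase-domain resistance mutations seeded at 1000 cells/well and exposed to compound for 48 h under standard incubator conditions. Viability read by CellTiter-Glo luminescence after 15 min at room temperature.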

[5] = molecular target: T3, FLT3 (Homo sapiens, UniProt P36888); assay: RBC HotSpot Kinase Assay, FLT3; assay type: biochemical; design: purchased Reaction Biology (RBC HotSpot); conditions: isolated kinase enzyme, 33P-ATP, P81 filter-binding
T3 sequence (P36888 27-993): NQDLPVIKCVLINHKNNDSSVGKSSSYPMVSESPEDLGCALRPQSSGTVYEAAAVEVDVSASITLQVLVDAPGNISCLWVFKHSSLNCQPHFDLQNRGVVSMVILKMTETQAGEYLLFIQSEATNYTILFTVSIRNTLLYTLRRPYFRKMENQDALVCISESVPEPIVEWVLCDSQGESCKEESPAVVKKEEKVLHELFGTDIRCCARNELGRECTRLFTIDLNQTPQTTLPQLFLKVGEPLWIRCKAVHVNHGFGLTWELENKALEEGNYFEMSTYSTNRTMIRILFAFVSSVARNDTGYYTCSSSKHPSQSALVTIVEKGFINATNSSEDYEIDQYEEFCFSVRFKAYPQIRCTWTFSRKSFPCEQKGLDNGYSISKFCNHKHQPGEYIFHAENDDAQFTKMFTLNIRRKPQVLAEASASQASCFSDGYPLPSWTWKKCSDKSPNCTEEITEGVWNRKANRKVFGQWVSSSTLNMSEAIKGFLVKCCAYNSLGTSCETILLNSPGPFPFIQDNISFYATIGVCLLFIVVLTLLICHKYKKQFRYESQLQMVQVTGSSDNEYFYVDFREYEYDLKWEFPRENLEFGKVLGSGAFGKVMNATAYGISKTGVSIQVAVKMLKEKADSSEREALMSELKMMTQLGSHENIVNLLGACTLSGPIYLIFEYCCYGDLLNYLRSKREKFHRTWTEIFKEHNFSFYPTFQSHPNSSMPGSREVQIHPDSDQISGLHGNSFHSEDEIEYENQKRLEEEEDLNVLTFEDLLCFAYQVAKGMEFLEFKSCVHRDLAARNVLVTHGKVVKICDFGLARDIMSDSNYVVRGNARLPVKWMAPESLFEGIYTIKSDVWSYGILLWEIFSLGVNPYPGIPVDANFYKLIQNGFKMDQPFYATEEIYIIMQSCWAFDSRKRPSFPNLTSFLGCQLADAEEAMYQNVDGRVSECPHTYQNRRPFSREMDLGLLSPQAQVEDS
Procedure, shortened: as §1

[6] = test system: MOLM14 F691L cells; assay: MOLM14 F691L cell viability assay (Cell Titer Glo); assay type: cell-based; conditions: Homo sapiens, MOLM-14; cell viability, Cell Titer Glo, 48 hours; read-out: MOLM14 F691L IC50
Procedure, shortened: as §2

Structure (SMILES)	IC50 [1] [nM]	IC50 ([2]; THP-1-Blue NF-κB cells stimulated with Pam3CSK4 (1 ng/mL), read-out: NF-κB Pam3SCK4 IC50) [nM]	IC50 ([2]; THP-1-Blue NF-κB cells stimulated with hIL1B (1 ng/mL), read-out: NF-κB IL1B IC50) [nM]	IC50 [3] [nM]	IC50 [4] [nM]	IC50 [5] [nM]	IC50 [6] [nM]
C[C@@](O)(c1ccc2ncc(-c3ccnc(N[C@H]4CNCC[C@@H]4F)n3)n2c1)C(F)(F)F (single isomer, unassigned) [Compound 27a]	0.7	55	52	4	18	< 0.5	–
CC(C)(O)c1cn2c(-c3nc(N[C@@H]4CCCNC4)ncc3F)cnc2cn1 [Compound 99a, (R)-2-(3-(5-fluoro-2-(piperidin-3-ylamino)pyrimidin-4-yl)imidazo[1,2-a]pyrazin-6-yl)propan-2-ol]	11	–	–	44	142	3	1420
COc1cc2ncc(-c3nc(N[C@H]4CNC[C@@H]4F)ncc3Cl)n2nc1C1CC1 [Compound 101a, 5-chloro-4-(6-cyclopropyl-7-methoxyimidazo[1,2-b]pyridazin-3-yl)-N-((3S,4S)-4-fluoropyrrolidin-3-yl)pyrimidin-2-amine]	1	–	–	24	113	0.8	711
COc1cc2ncc(-c3nc(N[C@@H]4CCCNC4)ncc3Cl)n2nc1C1CC1 [Compound 102a, (R)-5-chloro-4-(6-cyclopropyl-7-methoxyimidazo[1,2-b]pyridazin-3-yl)-N-(piperidin-3-yl)pyrimidin-2-amine]	2	–	–	81	23	< 0.5	71
COc1cc2ncc(-c3nc(N[C@H]4CNCC[C@@H]4F)ncc3Cl)n2nc1C1CC1 [Compound 103a, 5-chloro-4-(6-cyclopropyl-7-methoxyimidazo[1,2-b]pyridazin-3-yl)-N-((3S,4S)-4-fluoropiperidin-3-yl)pyrimidin-2-amine]	3	–	–	179	71	0.7	201
COc1cnc(N[C@@H]2CCCNC2)nc1-c1cnc2cc(OC)c(C3CC3)nn12 [Compound 105a, (R)-4-(6-cyclopropyl-7-methoxyimidazo[1,2-b]pyridazin-3-yl)-5-methoxy-N-(piperidin-3-yl)pyrimidin-2-amine]	259	–	–	> 10000	711	33	6340
COc1cc2ncc(-c3nc(N[C@H]4CNC[C@@H]4F)ncc3F)n2nc1N1CCCC1=O [Compound 107a, 1-(3-(5-fluoro-2-(((3S,4S)-4-fluoropyrrolidin-3-yl)amino)pyrimidin-4-yl)-7-methoxyimidazo[1,2-b]pyridazin-6-yl)pyrrolidin-2-one]	20	–	–	102	80	0.6	1130
COc1cc2ncc(-c3nc(N[C@H]4CNCC[C@@H]4F)ncc3F)n2nc1N1CCCC1=O [Compound 108a, 1-(3-(5-fluoro-2-(((3S,4S)-4-fluoropiperidin-3-yl)amino)pyrimidin-4-yl)-7-methoxyimidazo[1,2-b]pyridazin-6-yl)pyrrolidin-2-one]	57	–	–	241	80	2	798
COc1cc2ncc(-c3ccnc(N[C@H]4CNCC[C@@H]4F)n3)n2nc1C1CCO1 (stereo partly drawn) [Compound 109a, N-((3S,4S)-4-fluoropiperidin-3-yl)-4-(7-methoxy-6-(oxetan-2-yl)imidazo[1,2-b]pyridazin-3-yl)pyrimidin-2-amine]	4	–	–	239	28	1	318
COc1cc2ncc(-c3nc(N[C@@H]4CCCNC4)ncc3F)n2nc1N1CCCS1(=O)=O [Compound 110a, (R)-2-(3-(5-fluoro-2-(piperidin-3-ylamino)pyrimidin-4-yl)-7-methoxyimidazo[1,2-b]pyridazin-6-yl)isothiazolidine 1,1-dioxide]	20	–	–	23	18	< 0.5	113
Fc1cnc(N[C@H]2CNCC[C@@H]2F)nc1-c1cnc2cnc(C3COC3)cn12 [Compound 117a, 5-fluoro-N-((3S,4S)-4-fluoropiperidin-3-yl)-4-(6-(oxetan-3-yl)imidazo[1,2-a]pyrazin-3-yl)pyrimidin-2-amine]	45	–	–	397	159	3	1590
Fc1cnc(N[C@@H]2CCCNC2)nc1-c1cnc2cnc(C3COC3)cn12 [Compound 118a, (R)-5-fluoro-4-(6-(oxetan-3-yl)imidazo[1,2-a]pyrazin-3-yl)-N-(piperidin-3-yl)pyrimidin-2-amine]	155	–	–	732	179	7	3180
COc1cc2ncc(-c3nc(N[C@H]4CNC[C@@H]4F)ncc3F)n2nc1N1CCS(=O)(=O)CC1 [Compound 123a, 4-(3-(5-fluoro-2-(((3S,4S)-4-fluoropyrrolidin-3-yl)amino)pyrimidin-4-yl)-7-methoxyimidazo[1,2-b]pyridazin-6-yl)thiomorpholine 1,1-dioxide]	5	–	–	43	63	< 0.5	1000
COc1cc2ncc(-c3nc(N[C@@H]4CCCNC4)ncc3F)n2nc1N1CCS(=O)(=O)CC1 [Compound 124a, (R)-4-(3-(5-fluoro-2-(piperidin-3-ylamino)pyrimidin-4-yl)-7-methoxyimidazo[1,2-b]pyridazin-6-yl)thiomorpholine 1,1-dioxide]	138	–	–	123	90	2	1130
COc1cc2ncc(-c3ccnc(N[C@H]4CNCC[C@@H]4F)n3)n2nc1[C@H]1C[C@@H](O)C1 [Compound 127a, (Cis)-3-(3-(2-(((3S,4S)-4-fluoropiperidin-3-yl)amino)pyrimidin-4-yl)-7-methoxyimidazo[1,2-b]pyridazin-6-yl)cyclobutan-1-ol]	< 0.5	–	–	20	8	< 0.5	113

From US20260226048A1, “MULTI-CYCLIC IRAK AND FLT3 INHIBITING COMPOUNDS AND USES THEREOF” (CHILDREN'S HOSPITAL MEDICAL CENTER, priority 2023, published 2026)
